Source: patent US5236927A, “Anti-cancer quinazoline derivatives” (National Research Development Corporation, priority 1985, dated 1993)
“And” between values parts separate entries of the source, which are not always exact repeats. Equal values may be shown once. Read-outs that look alike come from different tables or passages of the source.

How the values were obtained:
alanine transaminase [1] = experiment: Hepatotoxicity in rats (plasma alanine transaminase); settings: 100 mg/kg 1 h i.v. infusion
Description: (§2) During and after the infusion blood and bile samples were collected. Four hours after the experiment the rats were sacrificed and the urine collected from the bladder and the liver and kidneys removed.
(§3) Samples of plasma were also analysed for alanine transaminase.

[2] = Urinary and faecal elimination in the mouse; format: in vivo; settings: 100 mg/kg i.p.; for dose excreted at 48 h: ip, 0-48 h
[3] = Toxicity and weight loss in treated L1210 tumour-bearing mice; format: in vivo, mouse
Description: (§1) The L1210 tumour is carried routinely in DBA2 mice at the Institute of Cancer Research (L1210/CBRI). For experiments 5×10^4 cells were implanted i.p. into male C57Bl×DBA2 F1 hybrid mice 3 days prior to treatment. […] The control group consisted of 9 mice and treated groups 6 or 7 mice.

[4] = tested on: de novo thymidylate synthesis in L1210 cells; experiment: Incorporation of 3H dUrd into acid-precipitable material in L1210 cells; format: cell-based; settings: Mus musculus, L1210, 10 min; 10 uM, by about 10 minutes
Description: L1210 cells were used at a concentration of 10^5 /ml. Incubation at 37° C. was in complete RPMI tissue culture medium plus or minus drugs for the lengths of time indicated on the graphs. After this time ^3 H dUrd was added at a concentration of 2 uCi/ml (about 0.2 uM). Three 1 ml aliquots were removed after 20 minutes, placed on ice and mixed with 1 ml of ice-cold phosphate buffered saline (PBS). Precipitation onto glass-fibre discs was performed by trichloroacetic acid washing followed by PBS. […] This is an indirect measurement of de novo thymidylate synthesis in whole cells. […] These concentrations are 10 times the ID50 values.

alanine transaminase [5] = settings: rat, in vivo
Description: as §2, §3

L1210/C15 cells = experiment: L1210/C15 cell culture growth inhibition (overproduces TS 45-fold); format: cell-based; settings: 48 hours; at 100 uM
Description: Cell counts after 48 hours of incubation were obtained by Coulter counting.

L1210 tumour = experiment: Treatment of L1210 tumour-bearing mice; format: in vivo, mouse
Description: as §1

Pharmacokinetics in rats = settings: 100 mg/kg 1 h i.v. infusion; for concentration: read-out: Plasma levels
Description: as §2, §3

alanine transaminase [6] = experiment: Comparative hepatotoxicity in the mouse (plasma alanine transaminase); format: in vivo
Description: […]. Plasma was prepared and the livers and kidneys excised and weighed.
Samples of plasma were also analysed for the enzyme alanine transaminase, an indicator of hepatotoxicity. […]

[7] = Comparative pharmacokinetics in the mouse (plasma, liver, kidney levels); format: in vivo; settings: for concentration at 3 h / concentration at 6 h: plasma, ip, read-out: Plasma quinazoline conc.
Description: 3 Hours and 6 hours after administration groups of three mice at each dose level were sacrificed by exsanguination via cardiac puncture. Plasma was prepared and the livers and kidneys excised and weighed.

L1210 cells = experiment: Reversal of L1210 toxicity by co-incubation with thymidine; format: cell-based
Description: Cells in the log phase of growth were diluted to about 5×10^4 /ml and duplicate 5ml aliquots were added to 50 ml tissue culture flasks containing the appropriate additions (diluted in RPMI and sterilised by Millipore filtration). Cell counts after 48 hours of incubation were obtained by Coulter counting.

[8] = 100 mg/kg i.p., 3 h post-treatment
[9] = 100 mg/kg i.p., 6 h post-treatment
[10] = 300 mg/kg i.p., 3 h post-treatment
[11] = 300 mg/kg i.p., 6 h post-treatment
[12] = 500 mg/kg i.p., 3 h post-treatment
[13] = 500 mg/kg i.p., 6 h post-treatment
[14] = compound 5 uM + 10 uM thymidine

C#CCN(Cc1ccc2nc[nH]c(=O)c2c1)c1ccc(C(=O)N[C@@H](CCC(=O)O)C(=O)O)cc1 [CB3804, N-(4-(N-((3,4-dihydro-4-oxo-6-quinazolinyl)methyl)prop-2-ynylamino)benzoyl)-L-glutamic acid]
plasma levels of alanine transaminase (in words) (alanine transaminase [1]; rats): did not
Peak plasma alanine transaminase (alanine transaminase [1]; individual rats): 57 % pre treatment and 143 % pre treatment
bioavailability following i.p. administration [2]: satisfactory bioavailability
components in faeces which may represent metabolites [2]: two components were observed in faeces
dose excreted at 48 h ([2]; faeces, read-out: Faecal excretion of the parent compound): 15 ± 13%
dose excreted at 48 h ([2]; urine, read-out: Urinary excretion of the parent compound): 4 ± 1%
signs of toxicity ([3]; 200 mg/kg i.p. daily ×5): no obvious signs of toxicity
weight loss ([3]; 200 mg/kg i.p. daily ×5): no weight loss occurred
signs of toxicity ([3]; dose levels up to 200 mg/kg): No signs of toxicity were apparent
activity at 10 µM [4]: < 20%
hepatotoxicity (alanine transaminase [5]): not hepatotoxic
L1210/C15 ID50 (L1210/C15 cells): no inhibition
anti-tumour effectiveness (L1210 tumour; 25 mg/kg i.p. daily ×5, versus other treatments): much less effective
"cures" (survived >100 days) (L1210 tumour; 50 mg/kg i.p. daily ×5): about 65%
"cures" (survived >100 days) (L1210 tumour; 100 mg/kg i.p. daily ×5): about 80%
anti-tumour activity compared with CB3717 (L1210 tumour; in vivo): comparable anti-tumour activity
detection in liver or kidneys at the end of the experiment (Pharmacokinetics in rats; rats): no CB3804 could be detected
Kidney level (Pharmacokinetics in rats; individual rats): < 0.5 % dose
Liver level (Pharmacokinetics in rats; individual rats): < 0.5 % dose
Cumulative biliary excretion (Pharmacokinetics in rats; individual rats, 100 mg/kg): 80 % dose
Cumulative urinary excretion (Pharmacokinetics in rats; individual rats, 100 mg/kg): 7 % dose
dose excreted (Pharmacokinetics in rats; rat, bile, iv, 100 mg/kg, Cumulative biliary excretion, individual rats): 72%
concentration at 1 h (Pharmacokinetics in rats; rat, plasma, iv, 100 mg/kg, Plasma levels, end inf, individual rats): 274 µM
concentration at 2 h (Pharmacokinetics in rats; rat, plasma, iv, 100 mg/kg, Plasma levels, inf + 1 h, individual rats): 10 µM
concentration at 3 h (Pharmacokinetics in rats; rat, plasma, iv, 100 mg/kg, Plasma levels, inf + 2 h, individual rats): < 2 µM
concentration at 4 h (Pharmacokinetics in rats; rat, plasma, iv, 100 mg/kg, Plasma levels, inf + 3 h, individual rats): < 2 µM
concentration at 5 h (Pharmacokinetics in rats; rat, plasma, iv, 100 mg/kg, Plasma levels, inf + 4 h, individual rats): < 2 µM
concentration at 0.5 h (Pharmacokinetics in rats; rat, plasma, iv, 100 mg/kg, Plasma levels, mid inf, individual rats): 275 µM
dose excreted (Pharmacokinetics in rats; rat, urine, iv, 100 mg/kg, Cumulative urinary excretion, individual rats): 11%
concentration (Pharmacokinetics in rats; end inf, individual rats, 100 mg/kg, 60 min): 256 µM
concentration (Pharmacokinetics in rats; inf + 1 h, individual rats, 120 min, 100 mg/kg, 120 min): 19 µM
concentration (Pharmacokinetics in rats; inf + 2 h, individual rats, 180 min): < 2 µM
concentration (Pharmacokinetics in rats; inf + 3 h, individual rats, 240 min): < 2 µM
concentration (Pharmacokinetics in rats; inf + 4 h, individual rats, 300 min): < 2 µM
concentration (Pharmacokinetics in rats; mid inf, individual rats, 30 min, 100 mg/kg, 30 min): 258 µM
Plasma alanine transaminase level (alanine transaminase [6]; [8]): 19 ± 3 U/L
Plasma alanine transaminase level (alanine transaminase [6]; [9]): 10 ± 6 U/L
Plasma alanine transaminase level (alanine transaminase [6]; [10]): 10 ± 4 U/L
Plasma alanine transaminase level (alanine transaminase [6]; [11]): 8 ± 3 U/L
Plasma alanine transaminase level (alanine transaminase [6]; [12]): 16 ± 3 U/L
Plasma alanine transaminase level (alanine transaminase [6]; [13]): 16 ± 2 U/L
Levels of alanine transaminase (in words) (alanine transaminase [6]; mice i.p., normal range 5-25U/l): within the normal range
hepatotoxicity (alanine transaminase [6]; mice, at the doses studied): not hepatotoxic
Kidney quinazoline level [7, 8]: < 0.1 % dose administered
Liver quinazoline level [7, 8]: < 0.1 % dose administered
Kidney quinazoline level [7, 9]: < 0.1 % dose administered
Liver quinazoline level [7, 9]: < 0.1 % dose administered
Kidney quinazoline level [7, 10]: < 0.03 % dose administered
Liver quinazoline level [7, 10]: < 0.03 % dose administered
Kidney quinazoline level [7, 11]: < 0.03 % dose administered
Liver quinazoline level [7, 11]: < 0.03 % dose administered
Kidney quinazoline level [7, 12]: < 0.1 % dose administered
Liver quinazoline level [7, 12]: < 0.2 % dose administered
Kidney quinazoline level [7, 13]: < 0.1 % dose administered
Liver quinazoline level [7, 13]: < 0.2 % dose administered
detection in plasma, liver and kidneys ([7]; mice, 3 and 6 hours after i.p. dose, for CB3804 except plasma 3 h at 500 mg/kg): below the limit of detection
accumulation in the kidneys ([7]; mouse, in vivo): does not apparently accumulate in the kidneys
concentration at 3 h ([7]; mouse, 100 mg/kg i.p., 3 h post-treatment): < 5 µM
concentration at 6 h ([7]; mouse, 100 mg/kg i.p., 6 h post-treatment): < 5 µM
concentration at 3 h ([7]; mouse, 300 mg/kg i.p., 3 h post-treatment): < 5 µM
concentration at 6 h ([7]; mouse, 300 mg/kg i.p., 6 h post-treatment): < 5 µM
concentration at 3 h ([7]; mouse, 500 mg/kg i.p., 3 h post-treatment): 5 µM
concentration at 6 h ([7]; mouse, 500 mg/kg i.p., 6 h post-treatment): < 5 µM
Cell count at 48 hours as % control (L1210 cells; [14]): 98 % control
Reversal of L1210 toxicity by thymidine (L1210 cells; [14]): reversal was complete
Cell count at 48 hours as % control (L1210 cells; compound 50 uM + 10 uM thymidine): 75 % control
